Tested on: patients with ADSL deficiency
Assay: Urinary assay of SAICAr and S-Adenosine by HPLC-MS/MS in patients treated with allopurinol
Assay type: in vivo, human
Conditions: for urinary SAICAr: three children, allopurinol 200 mg/d
Description: SAICAr and S-Ado metabolites in urine were assayed using HPLC-DAD and HPLC coupled with tandem mass spectrometry (HPLC-MS/MS) according to the techniques recently described (Ceballos-Picot et al. 2015; Zikanova et al. 2014).
The patients received allopurinol daily by the oral route (200 mg/d).

[1] = patient P1, T2 (6 months) vs T1
[2] = patient P1, T3 (12 months) vs T1
[3] = patient P2, T2 (6 months) vs T1
[4] = patient P2, T3 (12 months) vs T1
[5] = patient P3, T2 (6 months) vs T1
[6] = patient P3, T3 (12 months) vs T1

Compound: O=c1ncnc2[nH][nH]cc1-2 [allopurinol, 1,2-dihydro-4H-pyrazolo[3,4-d]pyrimidin-4-one]
- SAICAr, urine (patient P1, 6 months (T2) of allopurinol 200 mg/d oral, T1 37.7): 32.9 μmol/mmol creat
- S-Adenosine, urine (patient P1, 6 months (T2) of allopurinol 200 mg/d oral, before treatment (T1) 55.4): 51.6 μmol/mmol creat
- SAICAr, urine (patient P1, 12 months (T3) of allopurinol 200 mg/d oral, T1 37.7): 19.4 μmol/mmol creat
- S-Adenosine, urine (patient P1, 12 months (T3) of allopurinol 200 mg/d oral, T1 55.4): 36.4 μmol/mmol creat
- % variation S-Adenosine [1]: −6.9%
- % variation SAICAr [1]: −12.7%
- S-Ado/SAICAr ratio, urine (patient P1, T2 (6 months), T1 1.47): 1.57
- % variation S-Adenosine [2]: −34.3%
- % variation SAICAr [2]: −48.6%
- S-Ado/SAICAr ratio, urine (patient P1, T3 (12 months), T1 1.47): 1.88
- SAICAr, urine (patient P2, 6 months (T2) of allopurinol 200 mg/d oral, T1 95.4): 57.9 μmol/mmol creat
- S-Adenosine, urine (patient P2, 6 months (T2) of allopurinol 200 mg/d oral, T1 116.3): 79.3 μmol/mmol creat
- SAICAr, urine (patient P2, 12 months (T3) of allopurinol 200 mg/d oral, T1 95.4): 46.8 μmol/mmol creat
- S-Adenosine, urine (patient P2, 12 months (T3) of allopurinol 200 mg/d oral, T1 116.3): 63.7 μmol/mmol creat
- % variation S-Adenosine [3]: −31.8%
- % variation SAICAr [3]: −39.3%
- S-Ado/SAICAr ratio, urine (patient P2, T2 (6 months), T1 1.22): 1.37
- % variation S-Adenosine [4]: −45.2%
- % variation SAICAr [4]: −51.0%
- S-Ado/SAICAr ratio, urine (patient P2, T3 (12 months), T1 1.22): 1.36
- S-Adenosine, urine (patient P3, 6 months (T2) of allopurinol 200 mg/d oral, T1 148.6): 113.3 μmol/mmol creat
- SAICAr, urine (patient P3, 6 months (T2) of allopurinol 200 mg/d oral, T1 167.9): 96.3 μmol/mmol creat
- S-Adenosine, urine (patient P3, 12 months (T3) of allopurinol 200 mg/d oral, T1 148.6): 98.2 μmol/mmol creat
- SAICAr, urine (patient P3, 12 months (T3) of allopurinol 200 mg/d oral, T1 167.9): 72.9 μmol/mmol creat
- % variation S-Adenosine [5]: −23.8%
- % variation SAICAr [5]: −42.7%
- S-Ado/SAICAr ratio, urine (patient P3, T2 (6 months), T1 0.89): 1.18
- % variation S-Adenosine [6]: −33.9%
- % variation SAICAr [6]: −56.6%
- S-Ado/SAICAr ratio, urine (patient P3, T3 (12 months), T1 0.89): 1.35
- urinary SAICAr (after 6 and 12 months of treatment): significant reduction
- urinary SAICAr (after 6 months): significant reduction

Reference: patent US20190298722A1, “USE OF AN INHIBITOR OF THE DE NOVO SYNTHESIS OF PURINES, IN THE TREATMENT OF ADENYLOSUCCINATE LYASE DEFICIENCY” (ASSISTANCE PUBLIQUE-HOPITAUX DE PARIS, priority 2016, published 2019)
